pEC50, pIC50: −log10 of the molar value.
Legend:
[1] = target: T1, Cbl-b (Homo sapiens, UniProt Q13191); test: Cbl-b probe displacement HTRF binding assay; settings: 0.4 nM biotinylated Cbl-b, 150 nM BODIPY probe
T1 construct: biotin (biotinylated)
Procedure, shortened: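 Probe-displacement HTRF in Hepes/NaCl/Triton/TCEP/BSA buffer at room temperature: compound dilutions (to 10 μM) incubated 60 min with 0.4 nM biotin-Cbl-b, 150 nM BODIPY probe added for 15 min, Tb-streptavidin read. Signal normalised to DMSO and no-protein controls; IC50 from four-parameter curve.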

[2] = test system: Jurkat cells; test: IL-2 secretion assay in CD3/CD28-activated Jurkat cells (AlphaLISA); format: cell-based, human; settings: Homo sapiens, CD3/CD28 T Cell Activator, 24 h, IL-2 AlphaLISA
Procedure, shortened: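 IL-2 release quantified by AlphaLISA in supernatants after 24 h CD3/CD28 activation at 37° C. Compounds, 10 μM to 300 pM final in 1:2 steps, were added to 50,000 Jurkat cells/well 1 h before activation; 4-parameter fit gave EC50.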

T1 sequence (Q13191 whole entry, species assumed): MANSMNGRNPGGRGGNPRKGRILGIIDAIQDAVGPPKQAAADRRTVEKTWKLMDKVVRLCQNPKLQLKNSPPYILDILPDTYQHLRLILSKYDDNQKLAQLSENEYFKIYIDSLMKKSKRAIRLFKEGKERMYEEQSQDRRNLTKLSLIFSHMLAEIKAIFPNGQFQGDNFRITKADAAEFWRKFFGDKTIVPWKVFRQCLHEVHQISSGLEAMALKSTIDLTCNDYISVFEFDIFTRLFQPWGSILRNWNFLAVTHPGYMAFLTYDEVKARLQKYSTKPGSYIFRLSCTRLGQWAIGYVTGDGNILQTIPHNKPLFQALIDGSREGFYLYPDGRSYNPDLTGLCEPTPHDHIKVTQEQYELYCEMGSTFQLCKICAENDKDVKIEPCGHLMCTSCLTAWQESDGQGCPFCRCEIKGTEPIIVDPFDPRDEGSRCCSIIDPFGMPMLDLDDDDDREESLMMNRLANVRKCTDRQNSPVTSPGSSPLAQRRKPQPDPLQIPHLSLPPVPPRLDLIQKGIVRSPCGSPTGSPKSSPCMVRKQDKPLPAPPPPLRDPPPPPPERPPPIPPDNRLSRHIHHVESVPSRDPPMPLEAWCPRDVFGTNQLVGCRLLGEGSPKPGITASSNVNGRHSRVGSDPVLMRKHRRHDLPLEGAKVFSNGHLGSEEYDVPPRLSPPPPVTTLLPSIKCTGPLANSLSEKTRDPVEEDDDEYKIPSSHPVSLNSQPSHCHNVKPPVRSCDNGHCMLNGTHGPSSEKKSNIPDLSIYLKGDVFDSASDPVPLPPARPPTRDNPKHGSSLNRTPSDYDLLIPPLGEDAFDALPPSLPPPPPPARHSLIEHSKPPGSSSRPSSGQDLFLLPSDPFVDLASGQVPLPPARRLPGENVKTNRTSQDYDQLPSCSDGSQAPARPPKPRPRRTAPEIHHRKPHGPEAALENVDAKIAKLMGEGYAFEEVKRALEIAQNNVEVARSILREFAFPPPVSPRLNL

| SMILES | pIC50 [1] | pEC50 [2] |
| --- | --- | --- |
| Cn1cnnc1-c1cc(F)ccc1-c1cc(C2CC2)nc(-n2cc(C(F)(F)F)c3nc(CC4CCCCC4)[nH]c3c2=O)c1 [Example 43, 2-(Cyclohexylmethyl)-5-{6-cyclopropyl-4-[4-fluoro-2-(4-methyl-4H-1,2,4-triazol-3-yl)phenyl]-2-pyridyl}-7-(trifluoromethyl)-3,5-dihydro-1,3,5-triaza-4-indenone] | > 7.00 | > 7.00 |
| Cn1cc(C#N)nc1-c1cc(F)ccc1-c1cc(C2CC2)nc(-n2cc(C(F)(F)F)c3nc([C@@H]4CCOC4)[nH]c3c2=O)c1 [Example 47, 2-[2-(2-{2-[(S)-Tetrahydro-3-furyl]-4-oxo-7-(trifluoromethyl)-3,5-dihydro-1,3,5-triaza-5-indenyl}-6-cyclopropyl-4-pyridyl)-5-fluorophenyl]-1-methyl-4-imidazolecarbonitrile] | > 7.00 | > 7.00 |
| COC1CN(Cc2cc3ncn(-c4cc(-c5ccc(F)cc5-c5nncn5C)cc(C5CC5)n4)c(=O)c3[nH]2)C1 [Example 32, 6-{6-cyclopropyl-4-[4-fluoro-2-(4-methyl-4H-1,2,4-triazol-3-yl)phenyl]-2-pyridyl}-2-[(3-methoxy-1-azetidinyl)methyl]-1,6-dihydro-1,4,6-triaza-7-indenone] | > 7.00 | 6.00 to 7.00 |
